Experimental data as given in patent publication US11236354B2, “Glyphosate-n-acetyltransferase (GLYAT) sequences and methods of use” (PIONEER HI-BRED INTERNATIONAL, INC., priority 2013, dated 2022).

Tests used:
[1] = molecular target: GLYAT variant SEQ ID NO:9 (derived from SEQ ID NO:1 and 2) (Bacillus licheniformis, UniProt Q65LG7, A28V/D131E/E119K/E14D/E65Q/E67K/E68K/G37R/G38S/I132T/I135A/I15L/I19V/I53V/I91V/K101R/K144R/K58Q/L105M/L26I/L97I/M75V/R47G/R92K/T89S/V114A/Y130F/Y45F); test: Substrate saturation kinetic analysis of purified GLYAT; conditions: pH 7.0
Description: (§1) Cells were lysed with BPER (Pierce) containing 1 mM dithiothreitol, 0.2 mg/ml lysozyme, 2 mg/ml protease inhibitor cocktail (Sigma bacterial cell cocktail, P8465) and endonuclease. Lysate supernatants were passed through a column of NHS-activated Agarose (Thermo, #26197) derivatized with coenzyme A. Columns were washed with 25 mM Hepes, pH 7, containing progressively higher concentrations of KCl, then eluted with 25 mM Hepes, 100 mM KCl, 10% ethylene glycol and 1 mM acetyl CoA. Purity as evaluated by polyacrylamide gel electrophoresis was deemed consistently high enough to be assumed to be 100%. Protein concentration was determined with the Bradford assay using a large-scale lot of produced GLYAT protein as standard.
(§2) Kinetic parameters for various substrates were obtained using a range of seven substrate concentrations plus a blank containing none of the varied substrate. The non-varied substrate was present at a saturating concentration. Six-microliter aliquots of 50-fold concentrated stock solutions of the varied substrate were placed in a 96-well assay plate (Greiner BioOne UV-Star). Reactions were started with the addition of 294 ul of 25 mM Hepes, pH 7.0, 100 mM KCL, 10% ethylene glycol, the non-varied substrate and 10 to 200 nM enzyme. Absorbance was monitored for one minute with a Spectramax 384 Plus plate reader (Molecular Devices). If the amino acid present at position 30 (29 if alanine is absent at position 2) was cysteine, absorbance was monitored at 235 nm, which directly detects cleavage of the sulfoester bond of acetyl CoA. If the amino acid present at position 30 (29 if alanine is absent at position 2) was isoleucine, 0.5 mM 5,5′-dithiobis-(2-nitrobenzoic acid), which reacts with the coenzyme A thiol generated in the enzyme catalyzed reaction, was included in the reaction mix and absorbance was monitored at 412 nm. Initial rates were processed by the Softmax software to obtain kinetic parameters, using the double-reciprocal transformation.

[2] = molecular target: GLYAT variant SEQ ID NO:4 (derived from SEQ ID NO:1 and 2) (Bacillus licheniformis, UniProt Q65LG7, D131E/E14D/E65Q/E67K/E68K/G37R/G38S/I132T/I135A/I15L/I19V/I53V/I91V/K101R/K144R/K58Q/L105M/L26I/L36T/L97I/M75V/R47G/R92K/T33S/T89S/V114A/Y130F/Y31F/Y45F); test: as above; conditions: pH 7.0
Description: as §1, §2

N[C@@H](CC(=O)O)C(=O)O [aspartate]
Asp as % of glyph (kcat/KM asp / kcat/KM glyph) [1]: 0.073% | Asp as % of glyph (kcat/KM asp / kcat/KM glyph) [2]: 0.210%
